Assay results as given in publication PMC4437653, “Biochemical, Kinetic, and Spectroscopic Characterization of Ruegeria pomeroyi DddW—A Mononuclear Iron-Dependent DMSP Lyase” (PLoS ONE, 2015).

B1: Ruegeria pomeroyi DSS-3 DddW (DMSP lyase), N-terminally His-tagged, apo form (enzyme, UniProt Q5LW89 1-152, looked up)
chain: MTAMLDSFATDLTAATSLHQPGNLPHPPHAIDAENVPLSGGTDPTYGEVRWRTLINGTEAAPRDMVLGIAEFGPGHQLRPHRHTPPEFYLGLEGSGIVTIDGVPHEIRAGVALYIPGDAEHGTVAGPEGLRFAYGFASASFEAIEYRFTASA
notes: DddW, DMSP lyase of Ruegeria pomeroyi DSS-3 (locus SPO0453), 16.9 kDa without tag; No removal of the His10 tag is described; also called apo-DddW; SPO0453; source: E. coli BL21Star DE3 pLysS, purified (Ni-NTA), dialysed against EDTA to give apo-DddW

Tests used:
DddW [1] = biological target: T1, DddW (Ruegeria pomeroyi, UniProt Q5LW89, E87A); experiment: HPLC of acrylate product at […] nm, […] min end point; assay type: biochemical; conditions: 2 uM enzyme, 2 uM Fe(II), 10 mM DMSP, anaerobic
T1 construct: E. coli BL21Star DE3 pLysS; EDTA-treated apo enzyme loaded with metal; homodimer; cloning primers encode MTAMLDSF at the N-terminus and RFTASA at the C-terminus
T1 sequence (Q5LW89 whole entry E87A): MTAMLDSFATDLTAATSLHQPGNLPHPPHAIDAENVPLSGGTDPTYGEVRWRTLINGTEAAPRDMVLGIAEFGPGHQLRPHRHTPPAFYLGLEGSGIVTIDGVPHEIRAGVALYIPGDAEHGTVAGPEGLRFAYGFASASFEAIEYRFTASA

DddW [2] = biological target: T2, DddW (Ruegeria pomeroyi, UniProt Q5LW89, H83A); experiment: HPLC of acrylate product at […] nm, […] min end point; assay type: biochemical; conditions: 2 uM enzyme, 2 uM Fe(II), 10 mM DMSP, anaerobic
T2 construct: E. coli BL21Star DE3 pLysS; EDTA-treated apo enzyme loaded with metal; homodimer; cloning primers encode MTAMLDSF at the N-terminus and RFTASA at the C-terminus
T2 sequence (Q5LW89 whole entry H83A): as the sequence (Q5LW89 whole entry E87A) above, with H83A, A87E counted along it

DddW [3] = biological target: T3, DddW (Ruegeria pomeroyi, UniProt Q5LW89, H81A); experiment: HPLC of acrylate product at […] nm, […] min end point; assay type: biochemical; conditions: 2 uM enzyme, 2 uM Fe(II), 10 mM DMSP, anaerobic
T3 construct: E. coli BL21Star DE3 pLysS; EDTA-treated apo enzyme loaded with metal; homodimer; cloning primers encode MTAMLDSF at the N-terminus and RFTASA at the C-terminus
T3 sequence (Q5LW89 whole entry H81A): as the sequence (Q5LW89 whole entry E87A) above, with H81A, A87E counted along it

DddW [4] = biological target: T4, DddW (Ruegeria pomeroyi, UniProt Q5LW89, H121A); experiment: HPLC of acrylate product at […] nm, […] min end point; assay type: biochemical; conditions: 2 uM enzyme, 2 uM Fe(II), 10 mM DMSP, anaerobic
T4 construct: E. coli BL21Star DE3 pLysS; EDTA-treated apo enzyme loaded with metal; homodimer; cloning primers encode MTAMLDSF at the N-terminus and RFTASA at the C-terminus
T4 sequence (Q5LW89 whole entry H121A): as the sequence (Q5LW89 whole entry E87A) above, with A87E, H121A counted along it

purified protein = substrate: C[S+](C)CCC(=O)[O-]; experiment: purified protein; assay type: biochemical, Ruegeria pomeroyi; conditions: 2 uM apo-DddW with 2 uM Fe(II), pH 8.0, 50 mM HEPES, 20 mM NaCl, room temperature, anaerobic, DMSP 0.5-35 mM
[5] = biological target: the molecule itself; experiment: SEC; as-isolated apo-DddW (19 mg/mL) on Superdex 200 16/600 in storage buffer (50 mM HEPES pH 7.5, 100 mM NaCl, 10% glycerol), 0.6 mL/min; mass by comparison with standards

Row | Molecule | no acrylate product formed (DddW [1]) | no acrylate product formed (DddW [2]) | no acrylate product formed (DddW [3]) | no acrylate product formed (DddW [4]) | Km (purified protein) [mM] | kcat (purified protein) [s⁻¹] | stoichiometry N [5]
1 | C[S+](C)CCC(=O)[O-] [DMSP] | none of the DddW mutants formed the acrylate product compared to the wild-type enzyme | none of the DddW mutants formed the acrylate product compared to the wild-type enzyme | none of the DddW mutants formed the acrylate product compared to the wild-type enzyme | none of the DddW mutants formed the acrylate product compared to the wild-type enzyme | – | – | –
2 | B1 | – | – | – | – | 8.68 ± 0.73 | 18.25 | 2
